Here are results for ten compounds from paper PMC9196953 (Drug development research, 1999).

In one experiment the test system is A2B receptor. Further details: method as in Brackett and Daly, 1994. Conditions: ref Brackett and Daly, 1994; cited from earlier work.
Experiment [1] has as its target T1, human A2B receptors (Homo sapiens, UniProt P29275).
T1 construct: expressed in transfected cells; host or cells: HEK-293
T1 sequence (P29275 1-332): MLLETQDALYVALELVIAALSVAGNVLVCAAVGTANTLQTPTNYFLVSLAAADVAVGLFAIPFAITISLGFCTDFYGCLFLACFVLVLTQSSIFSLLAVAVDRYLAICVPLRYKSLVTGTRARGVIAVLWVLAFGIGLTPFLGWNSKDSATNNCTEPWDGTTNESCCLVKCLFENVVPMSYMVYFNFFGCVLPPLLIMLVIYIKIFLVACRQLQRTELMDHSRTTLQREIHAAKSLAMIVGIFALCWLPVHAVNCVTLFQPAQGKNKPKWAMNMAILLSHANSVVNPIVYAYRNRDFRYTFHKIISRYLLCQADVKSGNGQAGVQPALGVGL
Particulars: ref Jacobson et al., 1999, cited from earlier work.

Experiment [2] has as its target T1, human A2B receptors. As to the kind of experiment: Binding at human A2B receptors expressed in HEK-293 cells vs [3H]ZM241385. Conditions: for rA1/hA2B: ratio of Ki rat A1 to Ki human A2B. Here is the method: The plasmid was amplified in competent JM109 cells and plasmid DNA isolated using Wizard Megaprep columns (Promega Corp., Madison, WI).
Colonies were selected by growth of cells in 0.6 mg/mL G418. Transfected cells were maintained in DMEM supplemented with Hams F12 nutrient mixture (1/1), 10% newborn calf serum, 2 mM glutamine, and containing 50 IU/mL penicillin, 50 μg/mL streptomycin, and 0.2 mg/mL Geneticin (G418, Boehringer Mannheim, Indianapolis, IN).
Confluent monolayers of HEK-A2B cells were washed with PBS followed by ice-cold Buffer A (10 mM HEPES, 10 mM EDTA, pH 7.4) with protease inhibitors ([…] benzamidine, […], and […] of each aprotinin, pepstatin, and leupeptin). The cells were homogenized in a Polytron (Brinkmann) for 20 sec, centrifuged at 30,000g, and the pellets washed twice with buffer HE (10 mM HEPES, 1 mM EDTA, pH 7.4 with protease inhibitors). The final pellet was resuspended in buffer HE, supplemented with 10% sucrose and frozen in aliquots at −80°C. For binding assays, membranes were thawed and diluted 5–10-fold with HE to a final protein concentration of approximately 1 mg/mL. […] After incubating for 20 min at room temperature, 50 mL of 10 mg/mL Na-metabisulfite in water was added the quench the reaction. The reaction products were applied to a C18 HPLC column using 4 mM phosphate, pH 6.0/methanol. […] The incubation time was 3 h at 21°C. […] Membranes were filtered on Whatman GF/C filters using a Brandell cell harvester (Gaithersburg, MD) and washed three times over 15–20 sec with ice-cold buffer (10 mM Tris, 1 mM MgCl2, pH 7.4). […] Data from replicate experiments are tabulated as means ± SEM.
At A2B receptors, two radioligand binding assays (Table 1) were used. […] In order to evaluate selectivity, selected derivatives were subjected to standard binding assays at A1, A2A, and A3 receptors.

For a further experiment, the target named is T2, human A2A receptors (Homo sapiens, UniProt P29274).
T2 construct: expressed in transfected cells; host or cells: HEK-293
T2 sequence (P29274 whole entry): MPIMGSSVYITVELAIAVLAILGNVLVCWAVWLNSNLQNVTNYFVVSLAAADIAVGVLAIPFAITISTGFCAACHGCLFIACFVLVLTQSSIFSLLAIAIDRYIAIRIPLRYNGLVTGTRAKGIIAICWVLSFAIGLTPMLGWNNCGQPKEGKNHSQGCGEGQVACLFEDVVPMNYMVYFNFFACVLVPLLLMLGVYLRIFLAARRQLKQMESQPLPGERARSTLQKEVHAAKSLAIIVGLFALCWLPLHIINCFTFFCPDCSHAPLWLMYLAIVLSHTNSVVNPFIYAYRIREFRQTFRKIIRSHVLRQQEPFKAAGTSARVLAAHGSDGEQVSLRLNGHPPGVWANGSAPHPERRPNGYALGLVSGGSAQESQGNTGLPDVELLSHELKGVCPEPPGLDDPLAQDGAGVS
The experiment is described as follows: Binding at recombinant human A2A receptors expressed in HEK-293 cells vs [125I]ZM241385. Particulars: recombinant human A2A in HEK-293 cells, read-out: Ki A2A (h) (converted). Here is the method:
(§1) All nonradioactive compounds were initially dissolved in DMSO and diluted with buffer to the final concentration, where the amount of DMSO never exceeded 2%. Incubations were terminated by rapid filtration over Whatman GF/B filters using a Brandell cell harvester. The tubes were rinsed three times with 3 mL buffer each.
(§2) At least six different concentrations of competitor, spanning 3 orders of magnitude adjusted appropriately for the IC50 value of each compound, were used. IC50 values, calculated with the nonlinear regression method implemented in Graph-Pad Prism (San Diego, CA) were converted to apparent Ki values as described by [Linden [1982]]. Hill coefficients of the tested compounds were in the range of 0.8–1.1.
(§3) At A2B receptors, two radioligand binding assays (Table 1) were used. Ki values of xanthine derivatives were determined in displacement of binding of the non-selective radioligands […], 8 (4-(2-[7-amino-2-{furyl}{1,2,4}triazolo{2,3-a}{1,3,5}tr nzyl)-8-phenyloxyacetate-1-propyl-xanthine), at human A2B receptors expressed in HEK-293 cell membranes [[Linden and Jacobson, 1998]]. In order to evaluate selectivity, selected derivatives were subjected to standard binding assays at A1, A2A, and A3 receptors. The initial screening utilized rat brain A1/A2A receptors (with radioligands [^3H]R-PIA and [^3H]CGS-21680), and selected compounds were examined at the recombinant human subtypes (Table 1), using [^3H]CPX ([^3H]8-cyclopentyl-1,3-dipropylxanthine) and ^125I-ZM 241385, ^125I-4-(2-[7-amino-2-[2-furyl][1,2,4]triazolo[2,3-a][1,3,5]triazin-5-yl-amino]ethyl)phenol) [[Palmer et al., 1996]].

The next experiment deals with T3, rat A1 receptors (Rattus norvegicus, UniProt P25099).
T3 construct: to A1 receptors from rat cerebral cortical membranes; from tissue; host or cells: rat cerebral cortical membranes
T3 sequence (P25099 1-326): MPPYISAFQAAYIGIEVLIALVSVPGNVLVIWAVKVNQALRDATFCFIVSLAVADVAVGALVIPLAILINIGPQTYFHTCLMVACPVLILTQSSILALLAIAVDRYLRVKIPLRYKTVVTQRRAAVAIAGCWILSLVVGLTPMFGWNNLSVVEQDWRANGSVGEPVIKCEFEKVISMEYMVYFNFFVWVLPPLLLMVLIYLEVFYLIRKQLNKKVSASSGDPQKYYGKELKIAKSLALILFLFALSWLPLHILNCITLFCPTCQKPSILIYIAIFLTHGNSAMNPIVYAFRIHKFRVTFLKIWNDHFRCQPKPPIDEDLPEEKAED
As to the kind of experiment: Displacement of [3H]R-PIA binding to A1 receptors in rat brain membranes. Conditions: read-out: Ki rA1. As for the experimental part:
as §1, §2, §3
On the technique in general: In a radioligand displacement assay an active substance lowers the binding of a labelled ligand.

For a further experiment, the target named is T4, human A1 receptors (Homo sapiens, UniProt P30542).
T4 construct: expressed in transfected cells; host or cells: HEK-293
T4 sequence (P30542 1-326): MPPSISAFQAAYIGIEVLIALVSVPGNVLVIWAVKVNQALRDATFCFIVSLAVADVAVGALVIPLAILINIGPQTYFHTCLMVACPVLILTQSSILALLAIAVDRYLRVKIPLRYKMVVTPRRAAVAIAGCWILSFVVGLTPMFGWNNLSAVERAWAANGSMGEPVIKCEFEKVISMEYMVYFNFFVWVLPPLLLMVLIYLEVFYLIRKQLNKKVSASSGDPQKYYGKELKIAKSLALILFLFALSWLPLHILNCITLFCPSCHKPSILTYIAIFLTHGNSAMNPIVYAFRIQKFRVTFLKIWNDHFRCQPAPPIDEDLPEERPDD
The experiment is described as follows: Binding at recombinant human A1 receptors expressed in HEK-293 cells vs [3H]CPX. Particulars: recombinant human A1 in HEK-293 cells. As for the experimental part:
as §1, §2, §3

For a further experiment, the target named is T5, rat A2A receptors (Rattus norvegicus, UniProt P30543).
T5 construct: to A2A receptors from rat striatal membranes; from tissue; host or cells: rat striatal membranes
T5 sequence (P30543 whole entry): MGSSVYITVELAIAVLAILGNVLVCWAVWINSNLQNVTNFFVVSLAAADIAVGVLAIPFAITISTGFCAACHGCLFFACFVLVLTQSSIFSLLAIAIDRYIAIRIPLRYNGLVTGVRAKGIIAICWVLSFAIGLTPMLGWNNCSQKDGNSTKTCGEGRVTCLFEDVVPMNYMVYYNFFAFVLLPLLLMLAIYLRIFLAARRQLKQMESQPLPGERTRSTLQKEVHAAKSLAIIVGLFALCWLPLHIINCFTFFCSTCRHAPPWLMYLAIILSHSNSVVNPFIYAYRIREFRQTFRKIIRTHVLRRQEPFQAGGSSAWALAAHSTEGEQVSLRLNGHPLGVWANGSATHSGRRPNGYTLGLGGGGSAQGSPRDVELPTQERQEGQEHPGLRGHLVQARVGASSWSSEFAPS
The experiment is described as follows: Displacement of [3H]CGS 21680 binding to A2A receptors in rat striatal membranes. Particulars: read-out: Ki rA2A. Here is the method:
as §1, §2, §3

For a further experiment, the target named is T6, human A3 receptors (Homo sapiens, UniProt P0DMS8).
T6 construct: expressed in transfected cells; host or cells: HEK-293
T6 sequence (P0DMS8 1-318): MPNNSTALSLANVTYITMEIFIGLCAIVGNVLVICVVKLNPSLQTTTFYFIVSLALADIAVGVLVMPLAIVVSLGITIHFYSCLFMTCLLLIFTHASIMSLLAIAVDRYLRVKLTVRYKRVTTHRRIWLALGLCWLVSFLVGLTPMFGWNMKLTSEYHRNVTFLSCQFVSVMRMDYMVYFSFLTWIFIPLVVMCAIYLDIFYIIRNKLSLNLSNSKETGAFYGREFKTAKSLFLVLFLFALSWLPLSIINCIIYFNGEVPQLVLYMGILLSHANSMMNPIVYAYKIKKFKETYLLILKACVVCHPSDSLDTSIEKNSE
As to the kind of experiment: Displacement of [125I]AB-MECA binding at human A3 receptors expressed in HEK cells. Particulars: read-out: Ki hA3. As for the experimental part: as §3

[3] abbreviates: HEK-293 cells, vs [3H]ZM241385, read-out: Ki hA2B.
[4] abbreviates: rounded values given in text, read-out: Ki at human A2B receptors.

By Ki is commonly meant the equilibrium dissociation constant of an inhibitor or competing ligand from its target.

Molecules are shown by their SMILES. Where two headings read alike, the source gives them in different places.

Regarding `O=c1nc2[nH]c3ccccc3nc-2c(=O)[nH]1` [Alloxazine], the “selectivity as antagonist at the A2B receptor vs. other subtypes” value in the experiment with A2B receptor is “approximately one order of magnitude”.

Regarding `Cn1c(=O)c2[nH]c(-c3ccccc3)nc2n(C)c1=O` [Compound 3], at human A2B receptors [1] (relative to theophylline, 2), the “enhancement of affinity at A2B receptors” value is 22 fold.

With `CCCn1c(=O)c2[nH]c(-c3ccc(OCC(=O)ON4C(=O)CCC4=O)cc3)nc2n(CCC)c1=O` [Compound 4d], at human A2B receptors [1], the “selectivity for human A2B receptors vs. A1, A2A, and A3 adenosine receptors” value is recorded as “approximately 20 fold”.

Regarding `CCCn1c(=O)c2[nH]c(-c3ccc(OCC(=O)NN4C(=O)CCC4=O)cc3)nc2n(CCC)c1=O` [Compound 10, 8-[4-[(Carboxymethyl)oxy]phenyl]-1,3-di-(n-propyl)xanthine N,N-Succinylhydrazide], the Ki on human A2B receptors [2] (setting [3]) was 18.6 ± 6.1 nM; at human A2A receptors, 27.2 nM; at rat A1 receptors it was 55.9 ± 25.1 nM; on human A1 receptors, 75.2 nM; on rat A2A receptors it was 805 ± 44 nM; at human A3 receptors it was 766 ± 176 nM. Also, the rA1/hA2B on human A2B receptors [2] amounted to 3.0.

Consider `CCCn1c(=O)c2[nH]c(-c3ccc(OCC(=O)NN4C(=O)C5CC=CCC5C4=O)cc3)nc2n(CCC)c1=O` (stereo not drawn) [Compound 18b, 8-[4-[(Carboxymethyl)oxy]phenyl]-1,3-di-(n-propyl)xanthine N,N-(cis-1,2,3,6-Tetrahydrophthaloyl)-hydrazide], for which the Ki is 10 ± 3 nM at human A2B receptors [2] (setting [3]); 301 nM on human A2A receptors; 36.4 ± 6.2 nM at rat A1 receptors; 129 nM at human A1 receptors; 689 ± 477 nM at rat A2A receptors; 370 ± 190 nM on human A3 receptors. Further, the rA1/hA2B on human A2B receptors [2] is 3.6.

As to `CCCn1c(=O)c2[nH]c(-c3ccc(OCC(=O)NNC(=O)[C@H](CCC(=O)O)NC(=O)C(F)(F)F)cc3)nc2n(CCC)c1=O` [Compound 24a, 8-[4-[(Carboxymethyl)oxy]phenyl]-1,3-di-(n-propyl)xanthine N-[(4-Carboxy-(2S)-Trifluoroacetamido)-n-butanoyl]hydrazide], the inhibitory constant (Ki) on human A2B receptors [2] (setting [3]) turned out to be 24.8 ± 7.3 nM; at human A2B receptors [2] (setting [4]) it was 25 nM; at rat A1 receptors it was 70.8 ± 30.9 nM; at rat A2A receptors, 872 ± 412 nM; at human A3 receptors it was 430 ± 44 nM. On human A2B receptors [2], the rA1/hA2B is recorded as 2.9.

As to `CCCn1c(=O)c2[nH]c(-c3ccc(OCC(=O)NN4C(=O)CC[C@H](NC(=O)C(F)(F)F)C4=O)cc3)nc2n(CCC)c1=O` [Compound 24b], the Ki was 13 ± 3.5 nM on human A2B receptors [2] (setting [3]); 178 nM on human A2A receptors; 53.5 ± 6.5 nM on rat A1 receptors; 149 nM on human A1 receptors; 440 ± 106 nM on rat A2A receptors; 726 ± 245 nM at human A3 receptors. For the same compound, the rA1/hA2B at human A2B receptors [2] is listed as 4.1.

Regarding `CCCn1c(=O)c2[nH]c(-c3ccc(OCC(=O)NNC(=O)[C@H](CC(C)C)NC(=O)OC(C)(C)C)cc3)nc2n(CCC)c1=O` [Compound 25, 8-[4-[(Carboxymethyl)oxy]phenyl]-1,3-di-(n-propyl)xanthine N-(N-tert-Butoxycarbonyl-L-leucinyl)-hydrazide], the Ki on human A2B receptors [2] (setting [3]) was found to be 47.5 ± 2.5 nM; on human A2B receptors [2] (setting [4]), 48 nM; at rat A1 receptors, 197 ± 67 nM; on rat A2A receptors, 2750 nM; at human A3 receptors, 195 ± 84 nM. Further, the rA1/hA2B on human A2B receptors [2] is listed as 4.1.

On to `CCCn1c(=O)c2[nH]c(-c3ccc(OCC(=O)NNC(=O)[C@H](CCSC)NC(=O)OC(C)(C)C)cc3)nc2n(CCC)c1=O` [Compound 26, 8-[4-[(Carboxymethyl)oxy]phenyl]-1,3-di-(n-propyl)xanthine N-(N-tert-Butoxycarbonyl-L-methionyl)-hydrazide], for which the inhibitory constant (Ki) at human A2B receptors [2] (setting [3]) was 39.7 ± 13.6 nM; on human A2B receptors [2] (setting [4]), 40 nM; on rat A1 receptors it was 113 ± 27 nM; at rat A2A receptors it was 524 ± 285 nM; at human A3 receptors, 690 ± 570 nM. Besides, on human A2B receptors [2], the rA1/hA2B was 2.8.

In the case of `CCCn1c(=O)c2[nH]c(-c3ccc(OCC(=O)NNC(=O)CNC(=O)CNC(=O)OCc4ccccc4)cc3)nc2n(CCC)c1=O` [Compound 27, 8-[4-[(Carboxymethyl)oxy]phenyl]-1,3-di-(n-propyl)xanthine N-(N-Benzyloxycarbonyl-glycylglycinyl)hydrazide], the inhibitory constant (Ki) on human A2B receptors [2] (setting [3]) is 10.8 ± 5 nM; on human A2B receptors [2] (setting [4]) it was 11 nM; at human A2A receptors, 830 nM; on rat A1 receptors it was 36 ± 6.6 nM; at human A1 receptors, 200 nM; on rat A2A receptors it was 609 ± 95 nM. Moreover, on human A3 receptors, the Ki is 323 ± 47 nM. For the same compound, the rA1/hA2B at human A2B receptors [2] amounted to 3.3.
